Test system: androgen receptor (AR)
Experiment: AR ELISA assay (androgen receptor degradation)
Format: cell-based
Settings: LNCaP and/or VCaP cells, 5 hours drug treatment; for AR Dmax: % degraded
Procedure: 5. AR ELISA Assay Protocol
Compounds were evaluated in this assay in LNCaP and/or VCaP cells utilizing similar protocols. The protocols used with VCaP cells are described below. The androgen receptor ELISA assay was performed using PathScan AR Sandwich ELISA (Cell Signaling Catalog #12850) according to the following assay steps:
VCaP cells were seeded at 40,000 cells/well at a volume of 100 µL/well in VCaP assay medium [Phenol red free RPMI (Gibco Cat #11835-030); 5% Charcoal Stripped (Dextran treated) FBS (Omega Scientific, Cat #FB-04); 1% penstrep (Life Technologies, Gibco Cat #: 10378-016)] in Corning 3904 plates. The cells were incubated for a minimum of 3 days. Cells were dosed with PROTACs diluted in 0.01% DMSO and the drug treatment was allowed for 5 hours.
AR ELISA (Cell Signaling) was performed as follows. 1×Cell Signaling Cell lysis buffer was made (Catalogue #9803; comes with the kit). Media from the treated wells is aspirated, and 100 μL 1×cell lysis buffer/well is added. The cells were placed on a shaker for 10 minutes at 4° C. Twenty microliters of lysate was transferred to 100 μl of Diluent in ELISA plate ([…]-0.075 μg/ml). The lysate-diluent mixture was shaken for 30 minutes at 37° C. Allow mouse AR antibody, anti-mouse antibody, TMB, and STOP solution to come to room temperature. The 1×ELISA buffer included in kit was made and loaded in the reservoir. Media from the plates was discarded, the ELISA plate tapped hard on paper towel, and washed 4×200 μl ELISA wash buffer using a plate washer.
One-hundred (100) μL/well of mouse AR detection Ab was added; the plates were covered and shaken at 37° C. for 1 hour; media was discarded from the plates, the plates were tapped on a paper towel, washed 4× with 200 μL ELISA wash buffer with a plate washer.
One-hundred (100) μL/well of anti-mouse—HRP conjugated Ab (comes with the kit) was added; the plates were covered and shaken at 37° C. for 30 minutes; the TMB reagent was allowed to come to room temperature; the media was discard from the plate, the plates were tapped on paper towel, washed 4× with 200 μL of ELISA wash buffer; the plates were tapped the plates on paper towel. One-hundred (100) μL of TMB was added and the plates shaken for 2 minutes—while watching for color development. One-hundred (100) μL Stop solution was added when light blue color developed. Plates were shaken and read at 450 nm.

With `N#Cc1ccc(O[C@H]2CC[C@H](NC(=O)c3ccc(N4CCC(CN5CCN(c6ccc(C(=O)NC7CCC(=O)NC7=O)cc6)CC5)CC4)nn3)CC2)cc1Cl` (some centres unmarked) [PROTAC-59, N-((1r,4r)-4-(3-chloro-4-cyanophenoxy)cyclohexyl)-6-(4-((4-(4-((2,6-dioxopiperidin-3-yl)carbamoyl)phenyl)piperazin-1-yl)methyl)piperidin-1-yl)pyridazine-3-carboxamide] the “AR Dmax” value was “A (A > 75)” and the DC50 was < 1 nM.

With `CC1(C)[C@H](NC(=O)c2ccc(N3CCN(CCCOc4ccc(C(=O)NC5CCC(=O)NC5=O)nc4)CC3)nc2)C(C)(C)[C@H]1Oc1ccc(C#N)c(Cl)c1` (some centres unmarked) [PROTAC-50, 5-(3-(4-(5-(((1r,3r)-3-(3-chloro-4-cyanophenoxy)-2,2,4,4-tetramethylcyclobutyl)carbamoyl)pyridin-2-yl)piperazin-1-yl)propoxy)-N-(2,6-dioxopiperidin-3-yl)picolinamide] the “AR Dmax” value was “B (50 < B <= 75)” and the DC50 was < 1 nM.

With `Cn1c(-c2ccc(OCCCCCN3CCN(c4ccc(C(=O)N[C@H]5C(C)(C)[C@H](Oc6ccc(C#N)c(Cl)c6)C5(C)C)cc4)CC3)cc2)nn(C2CCC(=O)NC2=O)c1=O` (mixture of isomers) [PROTAC-69, rac-N-((1r,3r)-3-(3-chloro-4-cyanophenoxy)-2,2,4,4-tetramethylcyclobutyl)-4-(4-(5-(4-(1-(2,6-dioxopiperidin-3-yl)-4-methyl-5-oxo-4,5-dihydro-1H-1,2,4-triazol-3-yl)phenoxy)pentyl)piperazin-1-yl)benzamide] the “AR Dmax” value was “B (50 < B <= 75)” and the DC50 was < 1 nM.

For `CC1(C)[C@H](NC(=O)c2ccc(N3CCC(CCN4CCN(c5ccc(C(=O)NC6CCC(=O)NC6=O)nc5)CC4)CC3)nc2)C(C)(C)[C@H]1Oc1ccc(C#N)c(Cl)c1` (mixture of isomers) [PROTAC-52, rac-5-(4-(2-(1-(5-(((1r,3r)-3-(3-chloro-4-cyanophenoxy)-2,2,4,4-tetramethylcyclobutyl)carbamoyl)pyridin-2-yl)piperidin-4-yl)ethyl)piperazin-1-yl)-N-(2,6-dioxopiperidin-3-yl)picolinamide], the “AR Dmax” value was “B (50 < B <= 75)” and the DC50 was < 1 nM.

`CC1(C)[C@H](NC(=O)c2ccc(N3CCN(CCCCCOc4ccc5c(c4)C(=O)N(c4ccc(C#N)[nH]c4=O)C5=O)CC3)nc2)C(C)(C)[C@H]1Oc1ccc(C#N)c(Cl)c1` [PROTAC-42, N-((1r,3r)-3-(3-chloro-4-cyanophenoxy)-2,2,4,4-tetramethylcyclobutyl)-6-(4-(5-((2-(6-cyano-2-oxo-1,2-dihydropyridin-3-yl)-1,3-dioxoisoindolin-5-yl)oxy)pentyl)piperazin-1-yl)nicotinamide] was tested, and the “AR Dmax” value was “C (C <= 50)” and the DC50 was 10 to 100 nM.

With `CC1(C)[C@H](NC(=O)c2ccc(N3CCC(CN4CCN(c5ccc6c(=O)n(C7CCC(=O)NC7=O)ccc6c5)CC4)CC3)cc2)C(C)(C)[C@H]1Oc1ccc(C#N)c(Cl)c1` (some centres unmarked) [PROTAC-82, N-((1r,3r)-3-(3-chloro-4-cyanophenoxy)-2,2,4,4-tetramethylcyclobutyl)-4-(4-((4-(2-(2,6-dioxopiperidin-3-yl)-1-oxo-1,2-dihydroisoquinolin-6-yl)piperazin-1-yl)methyl)piperidin-1-yl)benzamide] the “AR Dmax” value was “A (A > 75)” and the DC50 was < 1 nM.

For `CC1(C)[C@H](NC(=O)c2ccc(N3CCN(CCCCCOc4ccc5ncc(-n6cc(C#N)c(=O)[nH]c6=O)cc5c4)CC3)nc2)C(C)(C)[C@H]1Oc1ccc(C#N)c(Cl)c1` [PROTAC-80, N-((1r,3r)-3-(3-chloro-4-cyanophenoxy)-2,2,4,4-tetramethylcyclobutyl)-6-(4-(5-((3-(5-cyano-2,4-dioxo-3,4-dihydropyrimidin-1(2H)-yl)quinolin-6-yl)oxy)pentyl)piperazin-1-yl)nicotinamide], the “AR Dmax” value was “C (C <= 50)” and the DC50 was ≥ 100 nM.

With `CC1(C)[C@H](NC(=O)c2ccc(N3CCN(CCOCCOCc4cc5ccccc5c(=O)n4C4CCC(=O)NC4=O)CC3)nc2)C(C)(C)[C@H]1Oc1ccc(C#N)c(Cl)c1` (some centres unmarked) [PROTAC-46, N-((1r,3r)-3-(3-chloro-4-cyanophenoxy)-2,2,4,4-tetramethylcyclobutyl)-6-(4-(2-(2-((2-(2,6-dioxopiperidin-3-yl)-1-oxo-1,2-dihydroisoquinolin-3-yl)methoxy)ethoxy)ethyl)piperazin-1-yl)nicotinamide] the “AR Dmax” value was “C (C <= 50)” and the DC50 was ≥ 100 nM.

`CC1(C)[C@H](NC(=O)c2ccc(N3CCN(CCCCCOc4ccc5c(c4)S(=O)(=O)N(C4CCC(=O)NC4=O)C5=O)CC3)nc2)C(C)(C)[C@H]1Oc1ccc(C#N)c(Cl)c1` (some centres unmarked) [PROTAC-33, N-((1r,3r)-3-(3-chloro-4-cyanophenoxy)-2,2,4,4-tetramethylcyclobutyl)-6-(4-(5-((2-(2,6-dioxopiperidin-3-yl)-1,1-dioxido-3-oxo-2,3-dihydrobenzo[d]isothiazol-6-yl)oxy)pentyl)piperazin-1-yl)nicotinamide] was tested, and the “AR Dmax” value was “B (50 < B <= 75)” and the DC50 was 1 to 10 nM.

For `CC1(C)[C@H](NC(=O)c2cnc(N3CCC(CN4CCN(c5ccc(C(=O)NC6CCC(=O)NC6=O)nc5)CC4)CC3)cn2)C(C)(C)[C@H]1Oc1ccc(C#N)c(Cl)c1` (mixture of isomers) [PROTAC-56, rac-N-((1r,3r)-3-(3-chloro-4-cyanophenoxy)-2,2,4,4-tetramethylcyclobutyl)-5-(4-((4-(6-((2,6-dioxopiperidin-3-yl)carbamoyl)pyridin-3-yl)piperazin-1-yl)methyl)piperidin-1-yl)pyrazine-2-carboxamide], the “AR Dmax” value was “B (50 < B <= 75)” and the DC50 was 1 to 10 nM.

`CC1(C)[C@H](NC(=O)c2ccc(N3CCN(CCOc4cccc5c4CN(c4ccc(F)cc4F)C5=O)CC3)nc2)C(C)(C)[C@H]1Oc1ccc(C#N)c(Cl)c1` [PROTAC-39, N-((1r,3r)-3-(3-chloro-4-cyanophenoxy)-2,2,4,4-tetramethylcyclobutyl)-6-(4-(2-((2-(2,4-difluorophenyl)-1-oxoisoindolin-4-yl)oxy)ethyl)piperazin-1-yl)nicotinamide] was tested, and the “AR Dmax” value was 0C (C <= 50) and the DC50 was ≥ 100 nM.

For `CC1(C)[C@H](NC(=O)c2ccc(N3CCN(CCCCCOc4ccc5c(-n6ccc(=O)[nH]c6=O)cncc5c4)CC3)nc2)C(C)(C)[C@H]1Oc1ccc(C#N)c(Cl)c1` [PROTAC-79, N-((1r,3r)-3-(3-chloro-4-cyanophenoxy)-2,2,4,4-tetramethylcyclobutyl)-6-(4-(5-((4-(2,4-dioxo-3,4-dihydropyrimidin-1(2H)-yl)isoquinolin-7-yl)oxy)pentyl)piperazin-1-yl)nicotinamide], the “AR Dmax” value was “C (C <= 50)” and the DC50 was 1 to 10 nM.

For `CCN(C(=O)c1ccc(OCCCCCN2CCN(c3ccc(C(=O)N[C@H]4C(C)(C)[C@H](Oc5ccc(C#N)c(Cl)c5)C4(C)C)cn3)CC2)cc1)C1CCC(=O)NC1=O` (mixture of isomers) [PROTAC-48, rac-N-((1r,3r)-3-(3-chloro-4-cyanophenoxy)-2,2,4,4-tetramethylcyclobutyl)-6-(4-(5-(4-((2,6-dioxopiperidin-3-yl)(ethyl)carbamoyl)phenoxy)pentyl)piperazin-1-yl)nicotinamide], the “AR Dmax” value was “C (C <= 50)” and the DC50 was ≥ 100 nM.

In the case of `Cn1c(-c2cccc(N3CCN(CC4CCN(c5ccc(C(=O)N[C@H]6C(C)(C)[C@H](Oc7ccc(C#N)c(Cl)c7)C6(C)C)cc5)CC4)CC3)c2)nn(C2CCC(=O)NC2=O)c1=O` (mixture of isomers) [PROTAC-68, rac-N-((1r,3r)-3-(3-chloro-4-cyanophenoxy)-2,2,4,4-tetramethylcyclobutyl)-4-(4-((4-(3-(1-(2,6-dioxopiperidin-3-yl)-4-methyl-5-oxo-4,5-dihydro-1H-1,2,4-triazol-3-yl)phenyl)piperazin-1-yl)methyl)piperidin-1-yl)benzamide], the “AR Dmax” value is reported as “A (A > 75)” and the DC50 is reported as < 1 nM.

In the case of `CC1(C)[C@H](NC(=O)c2ccc(N3CCC(CN4CCN(c5cnn(C6CCC(=O)NC6=O)c(=O)c5)CC4)CC3)cc2)C(C)(C)[C@H]1Oc1ccc(C#N)c(Cl)c1` (mixture of isomers) [PROTAC-62, rac-N-((1r,3r)-3-(3-chloro-4-cyanophenoxy)-2,2,4,4-tetramethylcyclobutyl)-4-(4-((4-(1-(2,6-dioxopiperidin-3-yl)-6-oxo-1,6-dihydropyridazin-4-yl)piperazin-1-yl)methyl)piperidin-1-yl)benzamide], the “AR Dmax” value is reported as “B (50 < B <= 75)” and the DC50 is reported as < 1 nM.

In the case of `CC1(C)[C@H](NC(=O)c2ccc(/C=C/CN3CCC4(CC3)CC(=O)N(C3CCC(=O)NC3=O)C4=O)cc2)C(C)(C)[C@H]1Oc1ccc(C#N)c(Cl)c1` (mixture of isomers) [PROTAC-77, rac-N-((1r,3r)-3-(3-chloro-4-cyanophenoxy)-2,2,4,4-tetramethylcyclobutyl)-4-((E)-3-(2-(2,6-dioxopiperidin-3-yl)-1,3-dioxo-2,8-diazaspiro[4.5]decan-8-yl)prop-1-en-1-yl)benzamide], the “AR Dmax” value is reported as “C (C <= 50)” and the DC50 is reported as ≥ 100 nM.
